According to ChEMBL document CHEMBL1201862, “PubChem BioAssay data set” (2004):
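Compound exposure: 48 hours, 5 concentrations, 96-well plates. At the GI50, growth is halved.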 Active and inactive are the calls of the source. No stated cut-off is given here; in the data, active = GI50 up to about 1.1 µM and inactive = higher.

How the values were obtained:
Assay in all cases: NCI-60 cell line screen, 48 h
COLO 205 = tested on: COLO 205
HOP-92 = tested on: HOP-92
EKVX = tested on: EKVX
SNB-75 = tested on: SNB-75
HCC 2998 = tested on: HCC 2998
KM12 = tested on: KM12
RPMI-8226 = tested on: RPMI-8226
OVCAR-8 = tested on: OVCAR-8
SK-OV-3 = tested on: SK-OV-3
U-251 = tested on: U-251
NCI-H460 = tested on: NCI-H460
UO-31 = tested on: UO-31
UACC-257 = tested on: UACC-257
A549 = tested on: A549
HOP-62 = tested on: HOP-62
OVCAR-3 = tested on: OVCAR-3
SK-MEL-5 = tested on: SK-MEL-5

Measured: GI50

Nc1nc(O)c([N+](=O)[O-])c(NCCOCP(=O)(O)O)n1
inactive: COLO 205 > 100 µM | HOP-92 > 100 µM | EKVX > 100 µM | SNB-75 > 100 µM | HCC 2998 > 100 µM | KM12 > 100 µM | RPMI-8226 > 100 µM | OVCAR-8 > 100 µM | SK-OV-3 > 100 µM | U-251 > 100 µM | NCI-H460 > 100 µM | UO-31 > 100 µM | UACC-257 > 100 µM | A549 > 100 µM | HOP-62 > 100 µM | OVCAR-3 > 100 µM

Cc1nc2ccccc2nc1NS(=O)(=O)c1ccc(N)cc1
inactive: COLO 205 > 100 µM | HOP-92 > 100 µM | EKVX > 100 µM | SNB-75 50.9 µM | HCC 2998 > 100 µM | KM12 > 100 µM | RPMI-8226 > 100 µM | OVCAR-8 > 100 µM | U-251 > 100 µM | UO-31 > 100 µM | UACC-257 > 100 µM | A549 > 100 µM | HOP-62 > 100 µM | SK-MEL-5 > 100 µM | OVCAR-3 > 100 µM

CO/S(=N/S(=O)(=O)c1ccccc1)c1ccccc1[N+](=O)[O-] (stereo not given)
inactive: COLO 205 > 100 µM | EKVX > 100 µM | SNB-75 > 100 µM | HCC 2998 > 100 µM | KM12 > 100 µM | RPMI-8226 > 100 µM | OVCAR-8 > 100 µM | SK-OV-3 > 100 µM | U-251 > 100 µM | NCI-H460 > 100 µM | UO-31 > 100 µM | UACC-257 > 100 µM | A549 > 100 µM | HOP-62 > 100 µM | SK-MEL-5 > 100 µM | OVCAR-3 > 100 µM

NC1=NN(c2ccccc2)C(=O)C1C(=O)CCC(=O)Nc1cccc(C(F)(F)F)c1 (stereo not given)
inactive: COLO 205 > 100 µM | HOP-92 > 100 µM | EKVX > 100 µM | HCC 2998 > 100 µM | KM12 > 100 µM | OVCAR-8 > 100 µM | SK-OV-3 > 100 µM | U-251 > 100 µM | NCI-H460 > 100 µM | UO-31 > 100 µM | UACC-257 > 100 µM | A549 > 100 µM | HOP-62 > 100 µM | SK-MEL-5 > 100 µM | OVCAR-3 > 100 µM

CC(C)(C)/N=C1/CC(C)(C)c2ccccc2/C(=N\c2ccccc2)S1
inactive: COLO 205 23.3 µM | EKVX 55.5 µM | SNB-75 32.5 µM | HCC 2998 35.2 µM | KM12 26.8 µM | RPMI-8226 11.2 µM | OVCAR-8 41.8 µM | SK-OV-3 57 µM | U-251 30.6 µM | NCI-H460 30.1 µM | UO-31 31.8 µM | UACC-257 30 µM | A549 36.4 µM | HOP-62 44.7 µM | SK-MEL-5 24.6 µM | OVCAR-3 33.1 µM

O=C1C(=O)N(c2ccc(Cl)c(Cl)c2)C(=O)C(=O)C1c1nc2ccccc2o1
inactive: COLO 205 47.2 µM | HOP-92 > 100 µM | SNB-75 > 100 µM | HCC 2998 > 100 µM | KM12 > 100 µM | RPMI-8226 24.7 µM | OVCAR-8 > 100 µM | SK-OV-3 > 100 µM | U-251 33.3 µM | NCI-H460 > 100 µM | UO-31 > 100 µM | UACC-257 98.4 µM | A549 > 100 µM | HOP-62 > 100 µM | OVCAR-3 > 100 µM

O=C(CCC(=O)Nc1ccc(Cl)c(Cl)c1)CC(=O)c1ccc(Cl)cc1
inactive: COLO 205 > 100 µM | HOP-92 24.8 µM | EKVX > 100 µM | HCC 2998 > 100 µM | KM12 > 100 µM | RPMI-8226 > 100 µM | OVCAR-8 > 100 µM | SK-OV-3 > 100 µM | U-251 > 100 µM | NCI-H460 > 100 µM | UO-31 > 100 µM | UACC-257 > 100 µM | A549 > 100 µM | OVCAR-3 > 100 µM

C#CCOCn1cnc2c(N)ncnc21
inactive: COLO 205 > 100 µM | HOP-92 > 100 µM | EKVX > 100 µM | SNB-75 > 100 µM | HCC 2998 > 100 µM | KM12 > 100 µM | RPMI-8226 > 100 µM | OVCAR-8 > 100 µM | SK-OV-3 > 100 µM | U-251 > 100 µM | NCI-H460 > 100 µM | UO-31 > 100 µM | UACC-257 > 100 µM | A549 > 100 µM | HOP-62 > 100 µM | SK-MEL-5 > 100 µM | OVCAR-3 > 100 µM

N#CC(NNC(=O)c1ccccc1O)c1ccc(O)cc1 (stereo not given)
inactive: COLO 205 29.2 µM | HOP-92 3.48 µM | SNB-75 1.24 µM | KM12 4.94 µM | RPMI-8226 10.2 µM | OVCAR-8 7.66 µM | SK-OV-3 6.44 µM | U-251 3.8 µM | NCI-H460 3.79 µM | UO-31 2.3 µM | UACC-257 15.6 µM | A549 2.74 µM | HOP-62 22.5 µM | SK-MEL-5 19.4 µM | OVCAR-3 9.55 µM

COC(=O)C1=CC(=O)[C@@H]2CCCC[C@H]12
inactive: COLO 205 > 100 µM | SNB-75 > 100 µM | HCC 2998 > 100 µM | KM12 > 100 µM | RPMI-8226 > 100 µM | OVCAR-8 > 100 µM | SK-OV-3 > 100 µM | U-251 > 100 µM | NCI-H460 > 100 µM | UO-31 > 100 µM | UACC-257 > 100 µM | A549 > 100 µM | HOP-62 > 100 µM | OVCAR-3 > 100 µM

Cc1ccc(C2=C(c3ccccc3)C(Br)(c3ccccc3)C(c3ccccc3)=C2c2ccc(C)cc2)cc1
inactive: COLO 205 > 100 µM | HOP-92 > 100 µM | EKVX > 100 µM | SNB-75 > 100 µM | KM12 > 100 µM | RPMI-8226 > 100 µM | OVCAR-8 > 100 µM | SK-OV-3 > 100 µM | U-251 > 100 µM | NCI-H460 > 100 µM | UO-31 > 100 µM | UACC-257 > 100 µM | A549 > 100 µM | HOP-62 > 100 µM | SK-MEL-5 > 100 µM | OVCAR-3 > 100 µM

Cc1ccccc1C(=O)c1ccccc1O
inactive: COLO 205 > 100 µM | HOP-92 > 100 µM | EKVX > 100 µM | SNB-75 > 79.6 µM | HCC 2998 > 100 µM | KM12 > 100 µM | OVCAR-8 > 100 µM | SK-OV-3 > 100 µM | U-251 > 100 µM | NCI-H460 > 100 µM | UO-31 24.6 µM | UACC-257 > 100 µM | A549 > 100 µM | HOP-62 > 100 µM | SK-MEL-5 > 100 µM | OVCAR-3 > 100 µM

N#CCCC(C#N)(C#N)CCC#N
inactive: COLO 205 > 100 µM | EKVX > 100 µM | HCC 2998 > 100 µM | KM12 > 100 µM | RPMI-8226 > 100 µM | OVCAR-8 > 100 µM | SK-OV-3 > 100 µM | U-251 > 100 µM | NCI-H460 > 100 µM | UO-31 > 100 µM | UACC-257 > 100 µM | A549 > 100 µM | HOP-62 > 100 µM | SK-MEL-5 > 100 µM | OVCAR-3 > 100 µM
